Test results as given in patent US20230103554A1, “TNFa SIGNALING [sequence] TUMOR-PROMOTING INFLAMMATION THAT CAN BE TARGETED TO THERAPY” (Baylor College of Medicine, priority 2020, published 2023).

What was measured:
Type in all cases: cell-based, human
SK-N-AS-luc = experiment: NB luminescence viability in monocyte co-culture; conditions: SK-N-AS-luc + monocytes, 10 μg/mL etanercept, 72 hours (FIG. 8B)
Method: (FIG. 8A) Luciferase expressing CHLA-255-luc and SK-NAS-luc were cultured in 1-16,000 pg/mL rhTNF for 48 hours and viability of the cells was measured by luminescence. Data was normalized to untreated control and graphed as % Viability versus Log10 of TNF concentration.
Monocytes were directly cultured with wild-type or TNF, TNFR1, TNFR2 KO NB cell lines in ULA plates for 24 hours. Activation of NF-kB in monocytes and NB was measured by flow cytometry and cytokine production measured by ELISA from co-culture supernatant. To evaluate the contact-dependence of monocyte activation by NB, monocytes were cultured in ULA plates with seven-day NB conditioned medium mixed 1:1 with complete monocyte medium for 24 hours and analyzed for IL-6 production. […] Luminescence was measured using a TECAN Spark plate reader (TECAN). To evaluate changes in proliferation, NB was pulsed for 10 minutes in CellTrace Violet (2 μM, Invitrogen) and seeded at 100,000 cells per well in a 12-well tissue culture-treated plate. Monocytes were added directly to the NB monolayer at a density of 100,000 per well and incubated for four days. CellTrace Violet expression was analyzed by flow cytometry.

[1] = test system: CHLA-255 monolayer and monocytes; experiment: Adherence of CD14+ monocytes to NB monolayer; conditions: CHLA-255, 10 μg/mL etanercept, four days
Method: Cultures were imaged at 10× magnification using Nikon DS-Fi1/Elements Software. Scale bar 50 μm. (FIG. 26B) CHLA-255 was grown to 25% confluence in 12-well tissue culture plates and overlaid with freshly isolated human monocytes. […] Non-adherent cells were gently washed with PBS before mechanical dissociation to release adherent cells. Adherent CD14+ monocytes were quantified relative to NB from samples run in triplicate. **** p<0.0001;

monocyte IL-6 production = experiment: NB-monocyte co-culture, IL-6 ELISA of supernatant; conditions: 24 hours
Method: Monocytes were directly cultured with wild-type or TNF, TNFR1, TNFR2 KO NB cell lines in ULA plates for 24 hours. Activation of NF-kB in monocytes and NB was measured by flow cytometry and cytokine production measured by ELISA from co-culture supernatant. To evaluate the contact-dependence of monocyte activation by NB, monocytes were cultured in ULA plates with seven-day NB conditioned medium mixed 1:1 with complete monocyte medium for 24 hours and analyzed for IL-6 production. To assess the growth advantage of NB cultured with monocytes, NB-luc cell lines and monocytes were seeded in tissue culture-treated white 96-well plates (1:1 ratio) and cultured for four days. Luminescence was measured using a TECAN Spark plate reader (TECAN). To evaluate changes in proliferation, NB was pulsed for 10 minutes in CellTrace Violet (2 μM, Invitrogen) and seeded at 100,000 cells per well in a 12-well tissue culture-treated plate. Monocytes were added directly to the NB monolayer at a density of 100,000 per well and incubated for four days. CellTrace Violet expression was analyzed by flow cytometry.
Cytokines released by monocytes were detected within co-culture supernatants using the Human TNF-alpha Quantikine ELISA Kit (TNFα, R&D Systems) and the Human IL-6 Quantikine ELISA Kit (IL-6, R&D Systems) according to manufacturer's guidelines. ELISA plates were read using a TECAN Spark plate reader (TECAN). Global cytokine regulation was evaluated using a custom Luminex panel containing the following cytokines: CX3CL1, CXCL10, EGF, FGF-2, Flt3L, G-CSF, GM-CSF, IL-1α, IL-1β, IL-1Ra, IL-4, IL-6, IL-8, IL-10, IL-12 (p40), IL-12 (p′70), M-CSF, MCP-1, MCP-3, MDC, MIP-1α, MIP-1β, TGFα, TNFα, TNFβ, and VEGF-A (Human Cytokine Panel A, Millipore-Sigma).

CHLA-255 = experiment: CellTrace Violet proliferation of NB co-cultured with monocytes; conditions: CHLA-255 CTV-pulsed + monocytes, 10 μg/mL etanercept, four days
Method: (15A) TNFα level within co-culture supernatant was determined by TNFα ELISA. Mean TNFα concentration±SD of representative data from two monocyte donors run in triplicate. (FIG. 15B) Supernatant IL-6 levels were determined by ELISA. Mean IL-6 concentration±SD of representative data from two monocyte donors run in triplicate (FIG. 15C) Intracellular IκBα expression level within CD14+GD2− monocyte population was determined by flow cytometry and IκBα MFI was normalized to monocyte only control. Mean normalized IκBα MFI±SD and representative from experiments with two monocyte donors run in triplicate. (FIG. 15D) Intracellular IκBα expression level within CD14-GD2+NB population was determined by flow cytometry and IκBα MFI was normalized to NB only control. […] NB luminescence was used to evaluate relative viability of cell line. Results are normalized mean luminescence±SD, n=6 replicates per condition. […] Cells undergoing multiple (2+) divisions were quantified as a percentage of total cells and normalized to NB (0) and Ctrl (1). […]
Monocytes were directly cultured with wild-type or TNF, TNFR1, TNFR2 KO NB cell lines in ULA plates for 24 hours. Activation of NF-kB in monocytes and NB was measured by flow cytometry and cytokine production measured by ELISA from co-culture supernatant. […] Luminescence was measured using a TECAN Spark plate reader (TECAN). […]

Substance: etanercept
- cell death caused by monocyte-produced TNF (luminescence) (SK-N-AS-luc): rescued
- adherence of CD14+ monocytes to NB monolayer [1]: decreased the adherence
- IL-6 production (monocyte IL-6 production; CHLA-255 + monocytes, 10 μg/mL etanercept, vs IgG control (FIG. 15B)): almost entirely blocked
- IL-6 level in co-culture supernatant (monocyte IL-6 production; SK-N-AS + monocytes, vs IgG control): decrease
- reduction of monocyte-induced increase in NB cells undergoing multiple divisions (CHLA-255): 56%
